Experiments:
[1] = Hygroscopicity of sample of crystal form A; format: physicochemical
Experimental: The free base crystal form A of compound 3 was placed in saturated water vapor at different relative humidities to allow the compound to reach a dynamic equilibrium with the water vapor, and the percentage of weight gain after moisture absorption of the compound after equilibrium was calculated.

[2] = Stability of sample of crystal form A (illumination, high temperature, high humidity); format: physicochemical
Experimental: The free base crystal form A of compound 3 of the present invention was taken to prepare a sample, the sample was placed under the conditions of illumination 5000 lx, high temperature 60° C., high humidity 92.5% RH, and high temperature and high humidity 50° C. 75% RH, the 5-day stability and 10-day stability were investigated, a HPLC external standard method was used to determine the content, and a chromatographic peak area normalization method was used to calculate the change in related substances.

[3] = tested on: luteinizing hormone (LH) in plasma of bilaterally ovariectomized (OVX) rats; assay: Effect on luteinizing hormone (LH) content in plasma of bilaterally ovariectomized (OVX) rats; format: in vivo; conditions: oral 30 mg/kg, plasma LH 0-8 h
From the text: The purpose of this test example is to measure the effect of compounds on luteinizing hormone (LH) in plasma of bilaterally ovariectomized (OVX) rats.
• CMCNa (30036365, Sinopharm Chemical Reagent Co., Ltd.); • Tween 80 (30189828, Sinopharm Chemical Reagent Co., Ltd.); • Rat LH ELISA Kit (S-type) purchased from Shibayagi Japan, with catalog number of AKRLH-010S, comprising Assay buffer C, Sample dilution buffer G, Washing buffer, biotinylated anti-LHα antibody, HRP-conjugated streptavidin and Chromogen (TMB).
Bilaterally ovariectomized SD rats, aged 10 weeks, female, purchased from Beijing Vital River Laboratory Animal Technology Co., Ltd. The animals were kept in SPF-grade animal room, with 5 SD rats/cage. […]
Sample detection: All reagents, samples and ELISA plates were transferred to room temperature 20° C.-25° C. and equilibrated for at least 30 min, and dissolution, vortex and centrifugation were performed for later use. […] The OD value of each well was read using the microplate reader at a wavelength of 450 nm.
Graphpad was used to draw a standard curve, and sample concentrations were calculated. If the dilution was performed during the sample detection, the calculated sample concentration needed to be multiplied by the corresponding dilution ratio in the final calculation, which was the actual concentration of the sample.

[4] = high humidity 92.5% RH, 10 days
[5] = high temperature 60° C., 5 days
[6] = high temperature 60° C., 10 days
[7] = high temperature and high humidity 50° C. 75% RH, 5 days
[8] = high temperature and high humidity 50° C. 75% RH, 10 days

Row | crystal form change (XRPD) after moisture absorption and desorption ([1]; 2 cycles, 0-95% relative humidity) | hygroscopicity (in words) ([1]; RH 80%) | weight gain after moisture absorption ([1]; RH 80%) | % Increase in total impurity ([2]; high humidity 92.5% RH, 5 days) [%] | % Maximum increase in single impurity ([2]; high humidity 92.5% RH, 5 days) [%] | % Increase in total impurity [2, 4] [%] | % Maximum increase in single impurity [2, 4] [%] | % Increase in total impurity [2, 5] [%] | % Maximum increase in single impurity [2, 5] [%] | % Increase in total impurity [2, 6] [%] | % Maximum increase in single impurity [2, 6] [%] | % Increase in total impurity [2, 7] [%] | % Maximum increase in single impurity [2, 7] [%] | % Increase in total impurity [2, 8] [%] | % Maximum increase in single impurity [2, 8] [%] | % Increase in total impurity ([2]; illumination 5000 lx, 5 days) [%] | % Maximum increase in single impurity ([2]; illumination 5000 lx, 5 days) [%] | % Increase in total impurity ([2]; illumination 5000 lx, 10 days) [%] | % Maximum increase in single impurity ([2]; illumination 5000 lx, 10 days) [%] | Structure (SMILES) | ΣAUC (ΔLH/LH · h, Mean ± SD) [3]
1 | no crystal form transformation | weak hygroscopicity | about 0.2720% | <0.02 | 0.06 | <0.02 | 0.07 | 0.12 | 0.07 | <0.02 | 0.07 | <0.02 | 0.03 | <0.02 | <0.02 | <0.02 | 0.03 | <0.02 | 0.05 | [2H]c1cc(C(=O)N2CCn3c(-c4nc(Cl)ns4)nnc3[C@H]2C)ccc1F [free base crystal form A, (R)-(3-(3-chloro-1,2,4-thiadiazol-5-yl)-8-methyl-5,6-dihydro-[1,2,4]triazolo[4,3-a]pyrazin-7(8H)-yl)(4-fluorophenyl-3-d)methanone] | –
2 | – | – | – | – | – | – | – | – | – | – | – | – | – | – | – | – | – | – | – | [2H]c1cc(C(=O)N2CCn3c(-c4nc(Cl)ns4)nnc3[C@H]2C)ccc1F [Compound 3, (R)-(3-(3-chloro-1,2,4-thiadiazol-5-yl)-8-methyl-5,6-dihydro-[1,2,4]triazolo[4,3-a]pyrazin-7(8H)-yl)(4-fluorophenyl-3-d)methanone] | −5.44 ± 3.02 ΔLH/LH · h
